Assay results from patent US9469615B2, “Quinoxalines and AZA-quinoxalines as CRTH2 receptor modulators” (Merck Sharp & Dohme Corp., priority 2010, dated 2016).

Biological target: T1, hCRTH2 (Homo sapiens, UniProt Q9Y5Y4)
T1 construct: expressed in transfected cells; host or cells: HEK (human embryonic kidney) cells expressing hCRTH2; membrane preparation
T1 sequence (Q9Y5Y4 1-395): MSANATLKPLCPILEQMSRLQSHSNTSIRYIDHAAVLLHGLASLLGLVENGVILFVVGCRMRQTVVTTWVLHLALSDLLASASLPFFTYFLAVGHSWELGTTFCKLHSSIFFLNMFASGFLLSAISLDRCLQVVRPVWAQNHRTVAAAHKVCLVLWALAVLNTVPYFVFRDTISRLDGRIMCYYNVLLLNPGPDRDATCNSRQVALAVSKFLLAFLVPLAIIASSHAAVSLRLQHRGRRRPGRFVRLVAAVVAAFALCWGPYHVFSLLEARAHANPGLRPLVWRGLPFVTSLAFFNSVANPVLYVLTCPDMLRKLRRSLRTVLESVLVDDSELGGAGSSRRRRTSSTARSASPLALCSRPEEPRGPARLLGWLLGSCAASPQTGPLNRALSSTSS
Experiment: Radioligand binding assay ([3H]PGD2 competition, HEK-hCRTH2 membranes)
Settings: [3H]PGD2 binding, rated A-E (Table A)
Method: Biological Assays Radioligand Binding Assay.
Radioligand binding assays were performed at room temperature in 50 mM Tris-HCl pH 7.4, 1 mM EDTA containing 2 mM MnCl2 and 3.0 nM [^3H]PGD2 (New England Nuclear, Boston, Mass.) (171 Ci mmol^−1), in a final volume of 0.2 mL. Competing ligands were diluted in dimethylsulfoxide (Me2SO) that was kept constant at 1% (v/v) of the final incubation volume. The reaction was initiated by the addition of 8-20 μg of membrane protein prepared from a human embryonic kidney (HEK)-hCRTH2 cell line. Total and non-specific binding were determined in the absence and the presence of 10 μM PGD2, respectively. […] The reaction was routinely conducted for 60 min at room temperature and terminated by rapid filtration through prewetted (0.3% polyethyleneimine) 96-well printed Filtermate™ (Wallac) using a Tomtec® harvester (Hamden, Conn.). After washing with cold buffer, the filter was dried for 2 minutes in microwave, and Meltilex Scintillator sheet (Wallac) was melted on for 2 min. The radioactivity was measured with Betaplate model 1205 (Wallac).

Row | SMILES | Ki
1 | CCNC(=O)c1ccc2nc(-c3ccccc3)c(CCCCC(=O)O)nc2c1 [15AS, 5-[7-(ethylcarbamoyl)-3-phenylquinoxalin-2-yl]pentanoic acid] | 2.1 to 20 nM
2 | O=C(O)CCCCc1nc2cc(C(=O)NC3CCc4ccccc43)ccc2nc1-c1ccccc1 (centres unmarked) [15AT, 5-[7-(2,3-dihydro-1H-inden-1-ylcarbamoyl)-3-phenylquinoxalin-2-yl]pentanoic acid] | 0.1 to 2 nM
3 | COc1ccc(C(C)NC(=O)c2ccc3nc(-c4ccccc4)c(CCCCC(=O)O)nc3c2)cc1 (centres unmarked) [15AU, 5-(7-{[1-(4-methoxyphenyl)ethyl]carbamoyl}-3-phenyl-quinoxalin-2-yl) pentanoic acid] | 2.1 to 20 nM
4 | O=C(O)CCCCc1nc2cc(C(=O)NCc3ccc(OC(F)(F)F)cc3)ccc2nc1-c1ccccc1 [15AV, 5-(3-phenyl-7-{[4-(trifluoromethoxy)benzyl]carbamoyl}quinoxalin-2-yl)pentanoic acid] | 0.1 to 2 nM
5 | Cc1ccc(CNC(=O)c2ccc3nc(-c4ccccc4)c(CCCCC(=O)O)nc3c2)cc1 [15AW, 5-{7-[(4-methylbenzyl)carbamoyl]-3-phenylquinoxalin-2-yl}pentanoic acid] | 0.1 to 2 nM
6 | C[C@@H](NC(=O)c1ccc2nc(-c3ccccc3)c(CCCCC(=O)O)nc2c1)c1ccc(Cl)cc1 [15AX, 5-(7-{[(1R)-1-(4-chlorophenyl)ethyl]carbamoyl}-3-phenyl-quinoxalin-2-yl)pentanoic acid] | 2.1 to 20 nM
7 | Cc1ccc([C@@H](C)NC(=O)c2ccc3nc(-c4ccccc4)c(CCCCC(=O)O)nc3c2)cc1 [15AY, 5-(7-{[(1R)-1-(4-methylphenyl)ethyl]carbamoyl}-3-phenyl-quinoxalin-2-yl)pentanoic acid] | 2.1 to 20 nM
8 | CCc1ccc(CNC(=O)c2ccc3nc(-c4ccccc4)c(CCCCC(=O)O)nc3c2)cc1 [15AZ, 5-{7-[(4-ethylbenzyl)carbamoyl]-3-phenylquinoxalin-2-yl}pentanoic acid] | 2.1 to 20 nM
9 | O=C(O)CCCCc1nc2cc(C(=O)N3CCC(c4ccccc4)CC3)ccc2nc1-c1ccccc1 [15Ai, 5-{3-phenyl-7-[(4-phenylpiperidin-1-yl)carbonyl]quinoxalin-2-yl}pentanoic acid] | 0.1 to 2 nM
10 | CN(Cc1ccccc1)C(=O)c1ccc2nc(-c3ccccc3)c(CCCCC(=O)O)nc2c1 [15Ao, 5-{7-[benzyl(methyl)carbamoyl]-3-phenylquinoxalin-2-yl}pentanoic acid] | 0.1 to 2 nM
11 | C[C@H](NC(=O)c1ccc2nc(-c3ccccc3)c(CCCCC(=O)O)nc2c1)c1ccccc1 [15B, 5-(3-phenyl-7-{[(1S)-1-phenylethyl]carbamoyl}quinoxalin-2-yl) pentanoic acid] | 2.1 to 20 nM
12 | COc1ccc(CNC(=O)c2ccc3nc(-c4ccccc4)c(CCCCC(=O)O)nc3c2)cc1 [15BA, 5-{7-[(4-methoxybenzyl)carbamoyl]-3-phenylquinoxalin-2-yl}pentanoic acid] | 0.1 to 2 nM
13 | N#Cc1ccc(CNC(=O)c2ccc3nc(-c4ccccc4)c(CCCCC(=O)O)nc3c2)cc1 [15BB, 5-{7-[(4-cyanobenzyl)carbamoyl]-3-phenylquinoxalin-2-yl}pentanoic acid] | 2.1 to 20 nM
14 | Cc1ccc([C@H](C)NC(=O)c2ccc3nc(-c4ccccc4)c(CCCCC(=O)O)nc3c2)cc1 [15BC, 5-(7-{[(1S)-1-(4-methylphenyl)ethyl]carbamoyl}-3-phenylquinoxalin-2-yl)pentanoic acid] | 2.1 to 20 nM
15 | CC(NC(=O)c1ccc2nc(-c3ccccc3)c(CCCCC(=O)O)nc2c1)c1ccc(OC(F)(F)F)cc1 (centres unmarked) [15BD, 5-[3-phenyl-7-({1-[4-(trifluoromethoxy)phenyl]ethyl}carbamoyl)quinoxalin-2-yl] pentanoic acid] | 2.1 to 20 nM
16 | O=C(O)CCCCc1nc2cc(C(=O)N3CCCC3)ccc2nc1-c1ccccc1 [15BE, 5-[3-phenyl-7-(pyrrolidin-1-ylcarbonyl)quinoxalin-2-yl]pentanoic aicd] | 2.1 to 20 nM
17 | O=C(O)CCCCc1nc2cc(C(=O)N3CCCCC3)ccc2nc1-c1ccccc1 [15BF, 5-[3-phenyl-7-(piperidin-1-ylcarbonyl)quinoxalin-2-yl] pentanoic acid] | 2.1 to 20 nM
18 | CNC(=O)c1ccc2nc(-c3ccccc3)c(CCCCC(=O)O)nc2c1 [15BG, 5-[7-(methylcarbamoyl)-3-phenylquinoxalin-2-yl]pentanoic acid] | 2.1 to 20 nM
19 | CC(NC(=O)c1ccc2nc(-c3ccccc3)c(CCCCC(=O)O)nc2c1)c1ccccc1F (centres unmarked) [15BH, 5-(7-{[1-(2-fluorophenyl)ethyl]carbamoyl}-3-phenylquinoxalin-2-yl)pentanoic acid] | 2.1 to 20 nM
20 | CON(C)C(=O)c1ccc2nc(-c3ccccc3)c(CCCCC(=O)O)nc2c1 [15BJ, 5-{7-[methoxy(methyl)carbamoyl]-3-phenylquinoxalin-2-yl}pentanoic acid] | 2.1 to 20 nM
21 | O=C(O)CCCCc1nc2cc(C(=O)NC3Cc4ccccc4C3)ccc2nc1-c1ccccc1 [15BK, 5-[7-(2,3-dihydro-1H-inden-2-ylcarbamoyl)-3-phenylquinoxalin-2-yl]pentanoic acid] | 0.1 to 2 nM
22 | C[C@@H](NC(=O)c1ccc2nc(-c3ccccc3)c(CCCCC(=O)O)nc2c1)c1ccccc1C(F)(F)F [15BL, 5-[3-phenyl-7-({(1R)-1-[2-(trifluoromethyl)phenyl]ethyl}carbamoyl)quinoxalin-2-yl]pentanoic acid] | 20.1 to 200 nM
23 | C[C@H](NC(=O)c1ccc2nc(-c3ccccc3)c(CCCCC(=O)O)nc2c1)c1ccc(Cl)cc1 [15BM, 5-(7-{[(1S)-1-(4-chlorophenyl)ethyl]carbamoyl}-3-phenylquinoxalin-2-yl)pentanoic acid] | 2.1 to 20 nM
24 | O=C(O)CCCCc1nc2cc(C(=O)NCCCN3CCCC3=O)ccc2nc1-c1ccccc1 [15BN, 5-(7-{[3-(2-oxopyrrolidin-1-yl)propyl]carbamoyl}-3-phenylquinoxalin-2-yl)pentanoic acid] | 2.1 to 20 nM
25 | Cc1cn(C2CCN(C(=O)c3ccc4nc(-c5ccccc5)c(CCCCC(=O)O)nc4c3)CC2)nn1 [15BQ, 5-(7-{[4-(4-methyl-1H-1,2-3-triazol-1-yl)piperidin-1-yl]carbonyl}-3-phenylquinoxalin-2-yl) pentanoic acid] | 2.1 to 20 nM
26 | Cc1cnnn1C1CCN(C(=O)c2ccc3nc(-c4ccccc4)c(CCCCC(=O)O)nc3c2)CC1 [15BR, 5-(7-{[4-(5-methyl-1H-1,2,3-triazol-1-yl)piperidin-1-yl]carbonyl}-3-phenylquinoxalin-2-yl)pentanoic acid] | 0.1 to 2 nM
27 | O=C(O)CCCCc1nc2cc(C(=O)N3CCC(c4cnccn4)CC3)ccc2nc1-c1ccccc1 [15BS, 5-{3-phenyl-7-[(4-pyrazin-2-ylpiperidin-1-yl)carbonyl]quinoxalin-2-yl}pentanoic acid] | 2.1 to 20 nM
28 | O=C(O)CCCCc1nc2cc(C(=O)NCc3cc(Cl)ccn3)ccc2nc1-c1ccccc1 [15BT, 5-(7-{[(4-chloropyridin-2-yl)methyl]carbamoyl}-3-phenylquinoxalin-2-yl)pentanoic acid] | 0.1 to 2 nM
29 | O=C(O)CCCCc1nc2cc(C(=O)NCc3cccc(Cl)n3)ccc2nc1-c1ccccc1 [15BU, 5-(7-{[(6-chloropyridin-2-yl)methyl]carbamoyl}-3-phenylquinoxalin-2-yl)pentanoic acid] | 0.1 to 2 nM
30 | O=C(O)CCCCc1nc2cc(C(=O)N3CCCc4ccccc43)ccc2nc1-c1ccccc1 [15Bi, 5-[7-(3,4-dihydro-quinolin-1(2H)-ylcarbonyl)-3-phenylquinoxalin-2-yl]pentanoic acid] | 0.1 to 2 nM

Same assay, conditions: [3H]PGD2 binding, values in text

Row | SMILES | Ki
31 | C[C@@H](NC(=O)c1ccc2nc(-c3ccccc3)c(CCCCC(=O)O)nc2c1)c1ccc(Cl)cc1 [15AX, 5-(7-{[(1R)-1-(4-chlorophenyl)ethyl]carbamoyl}-3-phenyl-quinoxalin-2-yl)pentanoic acid] | 3 nM
32 | O=C(O)CCCCc1nc2cc(C(=O)N3CCC(c4ccccc4)CC3)ccc2nc1-c1ccccc1 [15Ai, 5-{3-phenyl-7-[(4-phenylpiperidin-1-yl)carbonyl]quinoxalin-2-yl}pentanoic acid] | 1.9 nM
33 | CN(Cc1ccccc1)C(=O)c1ccc2nc(-c3ccccc3)c(CCCCC(=O)O)nc2c1 [15Ao, 5-{7-[benzyl(methyl)carbamoyl]-3-phenylquinoxalin-2-yl}pentanoic acid] | 1 nM
34 | C[C@@H](NC(=O)c1ccc2nc(-c3ccccc3)c(CCCCC(=O)O)nc2c1)c1ccccc1C(F)(F)F [15BL, 5-[3-phenyl-7-({(1R)-1-[2-(trifluoromethyl)phenyl]ethyl}carbamoyl)quinoxalin-2-yl]pentanoic acid] | 69.9 nM
35 | Cc1cnnn1C1CCN(C(=O)c2ccc3nc(-c4ccccc4)c(CCCCC(=O)O)nc3c2)CC1 [15BR, 5-(7-{[4-(5-methyl-1H-1,2,3-triazol-1-yl)piperidin-1-yl]carbonyl}-3-phenylquinoxalin-2-yl)pentanoic acid] | 0.1 nM
